The text below walks through data of ChEMBL document CHEMBL4616625, “The Medicinal Chemistry in the Era of Machines and Automation: Recent Advances in Continuous Flow Technology” (J Med Chem, 2020).

Experiment [1] concerns the target T1, Alpha-1B adrenergic receptor (Homo sapiens, UniProt P35368).
T1 sequence (P35368 whole entry): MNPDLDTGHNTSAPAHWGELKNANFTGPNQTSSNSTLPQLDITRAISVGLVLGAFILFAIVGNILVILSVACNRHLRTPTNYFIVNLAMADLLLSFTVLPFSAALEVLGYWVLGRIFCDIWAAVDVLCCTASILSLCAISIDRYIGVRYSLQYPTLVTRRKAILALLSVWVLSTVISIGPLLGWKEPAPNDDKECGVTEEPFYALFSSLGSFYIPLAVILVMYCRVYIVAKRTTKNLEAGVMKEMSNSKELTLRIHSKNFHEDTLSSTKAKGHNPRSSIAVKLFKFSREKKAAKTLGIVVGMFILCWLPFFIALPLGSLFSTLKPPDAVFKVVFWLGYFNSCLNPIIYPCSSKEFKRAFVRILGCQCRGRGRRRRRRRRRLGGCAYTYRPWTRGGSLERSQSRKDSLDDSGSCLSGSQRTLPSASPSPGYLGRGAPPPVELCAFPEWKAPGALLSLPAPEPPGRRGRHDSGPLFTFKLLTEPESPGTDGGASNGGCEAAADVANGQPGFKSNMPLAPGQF
In words: Inhibition of alpha1B adrenergic receptor (unknown origin).

The target of the next experiment is Albumin (Homo sapiens, UniProt P02768). The experiment can be described thus: Binding affinity to albumin (unknown origin). The format is ADME.
Chain of Albumin (P02768 whole entry): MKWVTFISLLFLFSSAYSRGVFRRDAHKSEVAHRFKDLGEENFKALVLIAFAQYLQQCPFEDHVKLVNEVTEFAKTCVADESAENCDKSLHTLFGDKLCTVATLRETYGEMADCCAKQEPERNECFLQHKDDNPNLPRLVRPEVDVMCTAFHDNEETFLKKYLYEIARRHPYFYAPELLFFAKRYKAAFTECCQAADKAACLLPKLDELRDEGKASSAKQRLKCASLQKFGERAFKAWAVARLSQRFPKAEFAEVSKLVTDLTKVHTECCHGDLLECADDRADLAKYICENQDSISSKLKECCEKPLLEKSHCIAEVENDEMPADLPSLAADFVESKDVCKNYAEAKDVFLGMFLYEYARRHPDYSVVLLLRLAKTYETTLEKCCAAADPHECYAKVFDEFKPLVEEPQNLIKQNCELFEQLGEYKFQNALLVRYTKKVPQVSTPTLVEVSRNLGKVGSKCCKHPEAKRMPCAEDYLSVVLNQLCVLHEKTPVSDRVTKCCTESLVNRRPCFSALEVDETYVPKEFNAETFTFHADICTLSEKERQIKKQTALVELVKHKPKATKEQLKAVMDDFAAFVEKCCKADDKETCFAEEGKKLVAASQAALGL

Usually Ki stands for the dissociation constant of the complex between target and ligand, obtained from inhibition or displacement. A higher Ki goes with a looser hold on the target. Broadly, the Kd is the free concentration of one partner at which half of the binding sites on the other are occupied at equilibrium, for simple one-to-one binding.

On to `COc1ccc(-c2nc3ccccn3c2NCCN2CCOCC2)c(OC)c1`, for which the Ki in experiment [1] came to 2000 nM.
For `CCCN(CCC)C(=O)Cc1c(-c2ccc(Cl)cc2)nc2ccc(Cl)cn12` [ALPIDEM], the Kd on Albumin came out at 2 µM.
On the same count and under the same terms, with `Cc1ccc(-c2nc3ccc(C)cn3c2CC(=O)N(C)C)cc1` [ZOLPIDEM] the figure was 63 µM.
